Patent US8791139B2, “Anthranilic diamide derivatives” (Bayer Cropscience AG, priority 2010, dated 2014)
Where “and” joins values, the source holds several entries; their conditions need not be identical. Equal values may be shown once.

assay: logP by HPLC on reversed-phase columns (C18), EEC Directive 79/831 Annex V.A8; format: physicochemical; details: HPLC reversed-phase C18, acidic range pH 2.7; Preparation Examples (intermediates)
Method: The logP values reported in the table above and in the Preparation Examples were determined in accordance with EEC Directive 79/831 Annex V.A8 by HPLC (High Performance Liquid Chromatography) on reversed-phase columns (C18), with the following methods:
The LC-MS determination in the acidic range is carried out at pH 2.7 using the mobile phases 0.1% aqueous formic acid and acetonitrile (contains 0.1% formic acid), linear gradient from 10% acetonitrile to 95% acetonitrile
Calibration was carried out using unbranched alkan-2-ones (having from 3 to 16 carbon atoms) with known logP values (the logP values were determined by the retention times using linear interpolation between two successive alkanones).

Row | logP | Compound
1 | 2.79 and 2.86 | 1-(3-Chloropyridin-2-yl)-3-{(E)-2-[5-(trifluoromethyl)-2H-tetrazol-2-yl]vinyl}-1H-pyrazole-5-carboxylic acid/1-(3-chloropyridin-2-yl)-3-{(E)-2-[5-(trifluoromethyl)-1H-tetrazol-1-yl]vinyl}-1H-pyrazole-5-carboxylic acid [Example No. XIV]

same assay, conditions: pH 2.7, log P

Row | Compound | chromatographic logP
2 | CNC(=O)c1cc(Br)cc(C)c1NC(=O)c1cc(C(=O)Nc2ccc(C(F)(F)F)cc2)nn1-c1ncccc1Cl [Example 2] | 3.53
3 | CNC(=O)c1cc(Cl)cc(C)c1NC(=O)c1cc(C(=O)Nc2ccc(C(F)(F)F)cc2)nn1-c1ncccc1Cl [Example 5] | 3.46
4 | CNC(=O)c1cc(Cl)cc(C)c1NC(=O)c1cc(C(=O)Nc2cc(C(F)(F)F)cc(C(F)(F)F)c2)nn1-c1ncccc1Cl [Example 6] | 4.16
5 | CNC(=O)c1cc(C#N)cc(C)c1NC(=O)c1cc(C#Cc2ccc(OC)cc2)nn1-c1ncccc1Cl [Example 8] | 3.11
6 | Cc1cc(Cl)cc(C(N)=O)c1NC(=O)c1cc(C#Cc2ccc(OC(F)(F)F)cc2)nn1-c1ncccc1Cl [Example 9] | 3.94
7 | Cc1cc(C#N)cc(C(=O)NC(C)(C)C)c1NC(=O)c1cc(C(=O)Cn2nnc(C(F)(F)F)n2)nn1-c1ncccc1Cl [Example 16] | 3.66
8 | CNC(=O)c1cc(Cl)cc(C)c1NC(=O)c1cc(N2CCN(Cc3ccc(Cl)nc3)C2=O)nn1-c1ncccc1Cl [Example 28] | 2.64
9 | CNC(=O)c1cc(C#N)cc(C)c1NC(=O)c1cc(N2CCN(Cc3ccc(Cl)nc3)C2=O)nn1-c1ncccc1Cl [Example 29] | 2.31
10 | Cc1cc(C#N)cc(C(=O)NC(C)(C)C)c1NC(=O)c1cc(N2CCN(Cc3ccc(Cl)nc3)C2=O)nn1-c1ncccc1Cl [Example 30] | 3.02
11 | Cc1cc(Cl)cc(C(N)=O)c1NC(=O)c1cc(C(=O)C(=O)c2ccc(Cl)cc2Cl)nn1-c1ncccc1Cl [Example 31] | 3.51
12 | CNC(=O)c1cc(Cl)cc(C)c1NC(=O)c1cc(CNS(=O)(=O)c2ccccc2Cl)nn1-c1ncccc1Cl [Example 37] | 2.58
13 | Cc1cc(Cl)cc(C(=O)NC(C)C)c1NC(=O)c1cc(CNS(=O)(=O)c2ccccc2Cl)nn1-c1ncccc1Cl [Example 38] | 3.06
14 | Cc1cc(Cl)cc(C(=O)NC2CC2)c1NC(=O)c1cc(CNS(=O)(=O)c2ccccc2Cl)nn1-c1ncccc1Cl [Example 39] | 2.8
15 | Cc1cc(Cl)cc(C(=O)NC(C)C)c1NC(=O)c1cc(CNS(=O)(=O)c2cccc(Cl)c2)nn1-c1ncccc1Cl [Example 43] | 3.25
16 | Cc1cc(Cl)cc(C(=O)NC(C)C)c1NC(=O)c1cc(CNS(=O)(=O)c2ccccc2)nn1-c1ncccc1Cl [Example 44] | 2.84
17 | Cc1cc(Cl)cc(C(=O)NC(C)C)c1NC(=O)c1cc(CNS(=O)(=O)c2ccccc2C(F)(F)F)nn1-c1ncccc1Cl [Example 45] | 3.26
18 | Cc1cc(Cl)cc(C(=O)NC(C)C)c1NC(=O)c1cc(CNS(=O)(=O)c2ccc(Cl)cc2)nn1-c1ncccc1Cl [Example 47] | 3.25
19 | Cc1cc(Cl)cc(C(=O)NC(C)C)c1NC(=O)c1cc(CNS(=O)(=O)c2cccc(C(F)(F)F)c2)nn1-c1ncccc1Cl [Example 48] | 3.43
20 | Cc1cc(Cl)cc(C(=O)NC(C)C)c1NC(=O)c1cc(CNS(=O)(=O)Cc2ccccc2C(F)(F)F)nn1-c1ncccc1Cl [Example 49] | 2.62
21 | Cc1cc(Cl)cc(C(=O)NC(C)C)c1NC(=O)c1cc(CNS(=O)(=O)Cc2ccc(C(F)(F)F)cc2)nn1-c1ncccc1Cl [Example 50] | 2.28
22 | Cc1cc(Cl)cc(C(=O)NC(C)C)c1NC(=O)c1cc(CNS(=O)(=O)Cc2cccc(C(F)(F)F)c2)nn1-c1ncccc1Cl [Example 51] | 3.42
23 | CNC(=O)c1cc(C#N)cc(C)c1NC(=O)c1cc(Nc2cccc(C(F)(F)F)n2)nn1-c1ncccc1Cl [Example 69] | 2.89
24 | CNC(=O)c1cc(C#N)cc(C)c1NC(=O)c1cc(Nc2cc(C(F)(F)F)ccn2)nn1-c1ncccc1Cl [Example 70] | 2.76
25 | Cc1cc(C#N)cc(C(=O)NC(C)C)c1NC(=O)c1cc(Nc2ccc(C(F)(F)F)c(C(F)(F)F)c2)nn1-c1ncccc1Cl [Example 72] | 3.91
26 | Cc1cc(C#N)cc(C(=O)NC(C)C)c1NC(=O)c1cc(Nc2cccc(C(F)(F)F)c2)nn1-c1ncccc1Cl [Example 75] | 3.66

same assay, conditions: reversed-phase HPLC column (C18), pH 2.7, HPLC reversed-phase C18, acidic range pH 2.7, 0.1% aqueous formic acid/acetonitrile; table of compounds of formula (I); read-out: log P

Row | chromatographic logP | Compound
27 | 4.62 | Cc1cc(Cl)cc(C(=O)NC(C)C)c1NC(=O)c1cc(C(=O)Nc2cc(C(F)(F)F)cc(C(F)(F)F)c2)nn1-c1ncccc1Cl [Example 7]
28 | 4.08 | CNC(=O)c1cc(C#N)cc(C)c1NC(=O)c1cc(N2CCN(c3cc(C(F)(F)F)cc(C(F)(F)F)c3)C2=O)nn1-c1ncccc1Cl [Example 23]
29 | 5.29 | Cc1cc(Cl)cc(C(=O)NC(C)(C)C)c1NC(=O)c1cc(N2CCN(c3cc(C(F)(F)F)cc(C(F)(F)F)c3)C2=O)nn1-c1ncccc1Cl [Example 24]
30 | 4.84 | Cc1cc(C#N)cc(C(=O)NC(C)(C)C)c1NC(=O)c1cc(N2CCN(c3cc(C(F)(F)F)cc(C(F)(F)F)c3)C2=O)nn1-c1ncccc1Cl [Example 25]
31 | 4.97 | Cc1cc(Cl)cc(C(=O)NC(C)C)c1NC(=O)c1cc(N2CCN(c3cc(C(F)(F)F)cc(C(F)(F)F)c3)C2=O)nn1-c1ncccc1Cl [Example 26]
32 | 4.55 | Cc1cc(C#N)cc(C(=O)NC(C)C)c1NC(=O)c1cc(N2CCN(c3cc(C(F)(F)F)cc(C(F)(F)F)c3)C2=O)nn1-c1ncccc1Cl [Example 27]
33 | 4.38 | Cc1cc(Cl)cc(C(=O)NC(C)C2CC2)c1NC(=O)c1cc(CNS(=O)(=O)c2cc(C(F)(F)F)cc(C(F)(F)F)c2)nn1-c1ncccc1Cl (centres unmarked) [Example 34]
34 | 4.1 | Cc1cc(Cl)cc(C(=O)NC(C)C)c1NC(=O)c1cc(CNS(=O)(=O)c2cc(C(F)(F)F)cc(C(F)(F)F)c2)nn1-c1ncccc1Cl [Example 35]
35 | 3.62 | CNC(=O)c1cc(Cl)cc(C)c1NC(=O)c1cc(CNS(=O)(=O)c2cc(C(F)(F)F)cc(C(F)(F)F)c2)nn1-c1ncccc1Cl [Example 36]
36 | 3.84 | Cc1cc(Cl)cc(C(=O)NC(C)C)c1NC(=O)c1cc(CNS(=O)(=O)c2cc(C(F)(F)F)ccc2C(F)(F)F)nn1-c1ncccc1Cl [Example 40]
37 | 3.63 | Cc1cc(Cl)cc(C(=O)NC(C)C)c1NC(=O)c1cc(CNS(=O)(=O)c2c(C(F)(F)F)cccc2C(F)(F)F)nn1-c1ncccc1Cl [Example 41]
38 | 3.94 | Cc1cc(Cl)cc(C(=O)NC(C)C)c1NC(=O)c1cc(CNS(=O)(=O)c2ccc(C(F)(F)F)cc2C(F)(F)F)nn1-c1ncccc1Cl [Example 42]
39 | 3.95 | Cc1cc(Cl)cc(C(=O)NC(C)C)c1NC(=O)c1cc(CNS(=O)(=O)Cc2cc(C(F)(F)F)cc(C(F)(F)F)c2)nn1-c1ncccc1Cl [Example 53]
40 | 4 | Cc1cc(Cl)cc(C(=O)NC(C)C)c1NC(=O)c1cc(CNS(=O)(=O)c2ccc(C(F)(F)F)c(C(F)(F)F)c2)nn1-c1ncccc1Cl [Example 54]
41 | 4.26 | Cc1cc(Cl)cc(C(=O)NC(C)C)c1NC(=O)c1cc(CN(Cc2cc(C(F)(F)F)cc(C(F)(F)F)c2)S(C)(=O)=O)nn1-c1ncccc1Cl [Example 57]
42 | 4.54 | Cc1cc(Cl)cc(C(=O)NC(C)C2CC2)c1NC(=O)c1cc(CN(Cc2cc(C(F)(F)F)cc(C(F)(F)F)c2)S(C)(=O)=O)nn1-c1ncccc1Cl (centres unmarked) [Example 58]
43 | 3.91 | Cc1cc(C#N)cc(C(=O)NC(C)C)c1NC(=O)c1cc(CN(Cc2cc(C(F)(F)F)cc(C(F)(F)F)c2)S(C)(=O)=O)nn1-c1ncccc1Cl [Example 60]
44 | 4.12 | Cc1cc(C#N)cc(C(=O)NC(C)C2CC2)c1NC(=O)c1cc(CN(Cc2cc(C(F)(F)F)cc(C(F)(F)F)c2)S(C)(=O)=O)nn1-c1ncccc1Cl (centres unmarked) [Example 61]
45 | 3.64 | Cc1cc(C#N)cc(C(=O)NC2CC2)c1NC(=O)c1cc(CN(Cc2cc(C(F)(F)F)cc(C(F)(F)F)c2)S(C)(=O)=O)nn1-c1ncccc1Cl [Example 62]

same assay, conditions: reversed-phase HPLC column (C18), pH 2.7, HPLC reversed-phase C18, acidic range pH 2.7; Preparation Examples (intermediates); read-out: logP

Row | chromatographic logP | Compound
46 | 3.07 | CN(Cc1cc(C(=O)O)n(-c2ncccc2Cl)n1)S(=O)(=O)Cc1cc(C(F)(F)F)cc(C(F)(F)F)c1 [Example No. III-1, 3-{[{[3,5-bis(trifluoromethyl)benzyl]sulphonyl}(methyl)amino]methyl}-1-(3-chloropyridin-2-yl)-1H-pyrazole-5-carboxylic acid]
47 | 2.78 | O=C(C(=O)c1ccc(Cl)cc1Cl)c1cc(C(=O)O)n(-c2ncccc2Cl)n1 [Example No. III-2, 1-(3-chloropyridin-2-yl)-3-[(2,4-dichlorophenyl)(oxo)acetyl]-1H-pyrazole-5-carboxylic acid]
48 | 3.36 | O=C(O)c1cc(C#Cc2ccc(OC(F)(F)F)cc2)nn1-c1ncccc1Cl [Example No. III-3, 1-(3-chloropyridin-2-yl)-3-{[4-(trifluoromethoxy)phenyl]ethynyl}-1H-pyrazole-5-carboxylic acid]
49 | 2.25 | O=C(Cn1nnc(C(F)(F)F)n1)c1cc(C(=O)O)n(-c2ncccc2Cl)n1 [Example No. III-4, 1-(3-chloropyridin-2-yl)-3-{[5-(trifluoromethyl)-2H-tetrazol-2-yl]acetyl}-1H-pyrazole-5-carboxylic acid]
50 | 3.47 | O=C(O)c1cc(N2CCN(c3cc(C(F)(F)F)cc(C(F)(F)F)c3)C2=O)nn1-c1ncccc1Cl [Example No. III-5, 3-{3-[3,5-bis(trifluoromethyl)phenyl]-2-oxoimidazolidin-1-yl}-1-(3-chloropyridin-2-yl)-1H-pyrazole-5-carboxylic acid]
